Consider five molecules from patent US20150038430A1, “THERAPEUTIC PEPTIDOMIMETIC MACROCYCLES” (AILERON Therapeutics, Inc., priority 2008, published 2015).

The EC50 is the midpoint of the concentration-response curve. As usually defined, the Kd is the free concentration of one partner at which half of the binding sites on the other are occupied at equilibrium, for simple one-to-one binding. Low readings indicate a tighter complex, high ones a looser complex.

One test deals with A375. Format: cell-based, human. Conditions: 24 h. As for the experimental part: (§1) Cell viability assays shown in FIGS. 34-52 were performed according to a similar protocol. Cells were split at optimal cell density a day prior to the initiation of the study. The next day, cells were washed twice in serum-free Opti-MEM media and 4000 cells/well were added to each well in a final volume of […] Opti-MEM. For serum-free experiments, macrocycles were diluted from 2 mM stocks (100% DMSO) in sterile water to prepare 400 μM working solutions. A 40 μM solution was then generated by ten-fold dilution in assay buffer. The macrocycle and controls were then serially diluted two-fold in assay buffer in dosing plates to provide concentrations between 1.2 and 40 μM, respectively. For experiments in 2% human serum, macrocycles were diluted from 10 mM stocks (100% DMSO) in sterile water to prepare 1 mM working solutions. A 100 μM solution was generated by ten-fold dilution in assay buffer. The macrocycles and controls were then serially diluted two-fold in assay buffer in dosing plates to provide concentrations between 3 and 100 μM, respectively. 50 μl of each dilution was then added to the appropriate wells of the test plate to achieve final concentrations of the macrocycle between 0.6 to 20 μM (for serum free experiment) or 1.5 to 50 μM (for 2% serum experiment), respectively. Controls included wells without macrocycles containing the same concentration of DMSO as the macrocycle-containing wells, wells containing 0.1% Triton X-100, and wells containing no cells. Plates were incubated for 24 hours at 37° C. in a humidified 5% CO2 atmosphere. At the end of a 24 hr incubation period, a CellTiter-Glo Luminescent Cell Viability Assay was performed according to manufacturer's instructions (Promega, catalog #G7571) and the luminescence was measured using a BIO-TEK synergy HT Plate reader. Values were plotted as percent viable, i.e. as a percentage of the negative control value (derived from cells exposed to DMSO only). All assays were performed in duplicate.
(§2) The following tables summarize the EC50 values (μM) observed with peptidomimetic macrocycles of the invention in various cell lines: […]

Another test deals with DHL-6. Format: cell-based, human. Conditions: 24 h. The method, then:
as §1, §2

The test system of a further test is Jurkat. In kind it is cell-based, human. The following applies: 24 h. As for the experimental part:
as §1, §2

For another test, the system named is MDA-MB231-Met. In kind it is cell-based, human. The following applies: 24 h. The method, then: as §1, §2
The next test has as its system MM1S. Format: cell-based, human. Conditions: 24 h. The method, then:
as §1, §2

Another test has as its system Molt-4. Format: cell-based, human. The following applies: 24 h. As for the experimental part: as §1, §2
A further test concerns NCI-H82 (SCLC-MCL1+). In kind it is cell-based, human. Conditions: 24 h. The method, then:
as §1, §2

The next test deals with OVCAR8. In kind it is cell-based, human. Conditions: 24 h. As for the experimental part:
as §1, §2

The next test has as its system PC3. In kind it is cell-based, human. The following applies: 24 h. The method, then: as §1, §2
In a further test the test system is RS4;11. Format: cell-based, human. The following applies: 24 h. As for the experimental part: as §1, §2
The subject of a further test is Raji. In kind it is cell-based, human. Conditions: 24 h. As for the experimental part:
as §1, §2

In the next test the test system is SEMK2. In kind it is cell-based, human. The following applies: 24 h. The method, then:
as §1, §2

A further test concerns the target Bcl-xL (Homo sapiens, UniProt Q07817). As to the kind of experiment: Kd, μM | Bcl-xL. The source says: (§3) Table printed on a drawing sheet, Figure 27
Head of the field: Kd, μM | Bcl-xL
Where the first naming reader finds the target: head: Kd, μM | Bcl-xL

The target in a further test is Bcl-2. As to the kind of experiment: Kd, μM | Bcl-2.
From the text: as §3
Head of the field: Kd, μM | Bcl-2
(§4) First copying reader's note: The last row (ABT-737) is a small-molecule comparator; the three plots above the table are not copied.
Where the first naming reader finds the target: head: Kd, μM | Bcl-2

The target in a further test is Mcl-1. In words: Kd, μM | Mcl-1.
From the text: as §3
Head of the field: Kd, μM | Mcl-1
as §4
Where the first naming reader finds the target: head: Kd, μM | Mcl-1

Structures are written as SMILES. Numbered stars: 1 amine (or outer) side, 2 acyl side, 3 side chain; on linkers, the order of the positions; unused ones are H or OH. Bridge positions count the residues as written; N and C are the ends. Square brackets hold non-standard residues; d marks the D form. Peptide text beside a SMILES is read from it. ξ: configuration not given here. ξαMeNle(6-ylidene) = CC(CCCC=[*:3])(N[*:1])C(=O)[*:2]; Nle = CCCC[C@H](N)C(=O)O

Bcl-xL, sequence (Q07817 whole entry, looked up): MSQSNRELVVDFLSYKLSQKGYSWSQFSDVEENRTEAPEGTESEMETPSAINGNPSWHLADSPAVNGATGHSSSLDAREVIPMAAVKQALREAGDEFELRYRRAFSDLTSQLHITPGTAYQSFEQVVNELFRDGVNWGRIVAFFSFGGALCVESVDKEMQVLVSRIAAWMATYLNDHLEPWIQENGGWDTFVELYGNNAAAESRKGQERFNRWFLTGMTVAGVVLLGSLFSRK

On to `CC[C@H](C)[C@H](NC(C)=O)C(=O)N[C@@H](Cc1c[nH]c2ccccc12)C(=O)N[C@H](C(=O)N[C@@H](C)C(=O)N[C@@H](CCC(N)=O)C(=O)N[C@@H](C)C(=O)N[C@@H](CC(C)C)C(=O)N[C@@H](CCCNC(=N)N)C(=O)NC1(C)CCCC=CCCCC(C)(C(=O)N[C@@H](Cc2ccccc2)C(=O)N[C@@H](CC(N)=O)C(=O)N[C@@H](C)C(=O)N[C@@H](Cc2ccc(O)cc2)C(=O)N[C@@H](Cc2ccc(O)cc2)C(=O)N[C@@H](C)C(=O)N[C@@H](CCCNC(=N)N)C(=O)N[C@@H](CCCNC(=N)N)C(N)=O)NC(=O)[C@H](CC(=O)O)NC(=O)CNC(=O)[C@H]([C@@H](C)CC)NC1=O)[C@@H](C)CC` (some centres unmarked) [SP-11] (Ac-IWIAQALR[ξαMeNle(6-ylidene)]IGD[ξαMeNle(6-ylidene)]FNAYYARR-NH2; staple 9-13), for which the EC50 was found to be 4.3 µM in the test on A375; 0.9 µM in the test with DHL-6; 0.9 µM in the test with Jurkat; 2 µM in the test with MDA-MB231-Met; 1.9 µM with MM1S; 1.6 µM with Molt-4. Besides, the half-maximal effective concentration (EC50) with NCI-H82 (SCLC-MCL1+) turned out to be 1.2 µM; with OVCAR8 it was 3.2 µM; with PC3, 4.6 µM; with RS4;11, 3.7 µM; in the test with Raji, 2.7 µM; with SEMK2, 2.6 µM. For the same molecule, the Kd at Bcl-xL is 0.25 µM; on Bcl-2 it was 2.8 µM; at Mcl-1, below 0.1 µM.
Regarding `CCCC[C@H](NC(=O)C1(C)CCCC=CCCCC(C)(NC(=O)[C@H](C)NC(=O)[C@H](CC(C)C)NC(=O)[C@H](Cc2c[nH]cn2)NC(=O)[C@H](CCCNC(=N)N)NC(=O)[C@H](C)NC(=O)[C@@H](NC(=O)[C@H](CC(N)=O)NC(=O)[C@H](CCCNC(=N)N)NC(=O)[C@@H](NC(=O)[C@@H](NC(=O)[C@H](CC(=O)O)NC(C)=O)[C@@H](C)CC)[C@@H](C)CC)[C@@H](C)CC)C(=O)N[C@@H](C(C)C)C(=O)N[C@@H](CCC(=O)O)C(=O)N[C@@H](CC(=O)O)C(=O)N1)C(=O)N[C@@H](CC(=O)O)C(=O)N[C@@H](CCCNC(=N)N)C(=O)N[C@@H](CO)C(=O)N[C@H](C(N)=O)[C@@H](C)CC` (some centres unmarked) [SP-2] (Ac-DIIRNIARHLA[ξαMeNle(6-ylidene)]VED[ξαMeNle(6-ylidene)][Nle]DRSI-NH2; staple 12-16), the EC50 in the test on A375, with Jurkat, with MDA-MB231-Met, in the test on MM1S, in the test on Molt-4 and in the test on NCI-H82 (SCLC-MCL1+) was above 20 µM each time. Moreover, the EC50 with OVCAR8, in the test on RS4;11, in the test on Raji and with SEMK2 was above 20 µM in each case. The dissociation constant Kd at Bcl-xL, on Bcl-2 and on Mcl-1 was above 10 µM in each case.
Take `CCCC[C@@H]1NC(=O)CNC(=O)[C@H]([C@@H](C)CC)NC(=O)C(C)(NC(=O)[C@H](CCCNC(=N)N)NC(=O)[C@H](CC(C)C)NC(=O)[C@H](C)NC(=O)[C@H](CCC(N)=O)NC(=O)[C@H](C)NC(=O)[C@@H](NC(=O)[C@H](Cc2c[nH]c3ccccc23)NC(=O)[C@H](CCCNC(=N)N)NC(C)=O)[C@@H](C)CC)CCCC=CCCCC(C)(C(=O)N[C@@H](Cc2ccccc2)C(=O)N[C@@H](CC(N)=O)C(=O)N[C@@H](C)C(=O)N[C@@H](Cc2ccc(O)cc2)C(=O)N[C@@H](Cc2ccc(O)cc2)C(=O)N[C@@H](C)C(=O)N[C@@H](CCCNC(=N)N)C(=O)N[C@@H](CCCNC(=N)N)C(N)=O)NC1=O` (some centres unmarked) [SP-12] (Ac-RWIAQALR[ξαMeNle(6-ylidene)]IG[Nle][ξαMeNle(6-ylidene)]FNAYYARR-NH2; staple 9-13): the 50% effective concentration (EC50) in the test with A375 worked out at 0.7 µM; in the test on Jurkat, 0.4 µM; with MDA-MB231-Met, 0.5 µM; with Molt-4, 0.7 µM; in the test with NCI-H82 (SCLC-MCL1+) it was 0.9 µM; in the test on OVCAR8, 0.7 µM. In addition, the 50% effective concentration (EC50) came to 1.9 µM with PC3, 1.71 µM with RS4;11, 0.3 µM in the test with Raji and 0.5 µM in the test on SEMK2. Further, the Kd at Bcl-xL came out at 0.19 µM; on Mcl-1, 2.5 µM.
On to `CCCC[C@H](NC(=O)[C@H](CO)NC(=O)[C@H](CC(=O)O)NC(=O)CNC(=O)[C@@H](NC(=O)[C@H](CCC(N)=O)NC(=O)[C@H](C)NC(=O)[C@H](CC(C)C)NC(=O)[C@H](Cc1c[nH]cn1)NC(=O)[C@H](CCCNC(=N)N)NC(=O)[C@H](C)NC(=O)[C@@H](NC(=O)[C@H](CC(N)=O)NC(=O)[C@H](CCCNC(=N)N)NC(=O)[C@@H](NC(=O)[C@@H](NC(=O)[C@H](CC(=O)O)NC(C)=O)[C@@H](C)CC)[C@@H](C)CC)[C@@H](C)CC)C(C)C)C(=O)N[C@@H](CC(=O)O)C(=O)N[C@@H](CCCNC(=N)N)C(=O)N[C@@H](CO)C(=O)N[C@H](C(N)=O)[C@@H](C)CC` [SP-3] (HELM PEPTIDE1{[ac].D.I.I.R.N.I.A.R.H.L.A.Q.V.G.D.S.[Nle].D.R.S.I.[am]}$$$$V2.0), for which the EC50 in the test on DHL-6, with Jurkat, in the test with MM1S, in the test on Molt-4, in the test with RS4;11 and in the test on Raji was above 20 µM in each case. In addition, the EC50 with SEMK2 was above 20 µM. The Kd is 0.4 µM on Bcl-xL, above 10 µM on Bcl-2 and 0.12 µM at Mcl-1.
In the case of `CC[C@H](C)[C@H](NC(C)=O)C(=O)N[C@@H](Cc1c[nH]c2ccccc12)C(=O)N[C@H](C(=O)N[C@@H](C)C(=O)N[C@@H](CCC(N)=O)C(=O)N[C@@H](CCC(=O)O)C(=O)N[C@@H](CC(C)C)C(=O)N[C@@H](CCCNC(=N)N)C(=O)NC1(C)CCCC=CCCCC(C)(C(=O)N[C@@H](Cc2ccccc2)C(=O)N[C@@H](CC(N)=O)C(=O)N[C@@H](C)C(=O)N[C@@H](Cc2ccc(O)cc2)C(=O)N[C@@H](Cc2ccc(O)cc2)C(=O)N[C@@H](C)C(=O)N[C@@H](CCCNC(=N)N)C(=O)N[C@@H](CCCNC(=N)N)C(N)=O)NC(=O)[C@H](CC(=O)O)NC(=O)[C@H](CCC(=O)O)NC(=O)[C@H]([C@@H](C)CC)NC1=O)[C@@H](C)CC` (some centres unmarked) [SP-5] (Ac-IWIAQELR[ξαMeNle(6-ylidene)]IED[ξαMeNle(6-ylidene)]FNAYYARR-NH2; staple 9-13), the Kd on Bcl-xL, on Bcl-2 and at Mcl-1 was above 10 µM in each case.
